In patent publication US11672788B2, “Histone deacetylase inhibitors for immunomodulation in tumor microenvironment” (GREAT NOVEL THERAPEUTICS BIOTECH & MEDICALS CORPORATION, priority 2020, dated 2023):

Columns and labels:
[1] = tested on: CT26 tumor; assay: Anti-cancer activity in CT26 tumor-bearing BALB/c mice; format: in vivo; settings: for ORR (%): k-30 compounds 50 mg/kg, Regorafenib 30 mg/kg po daily; for ORR (%) / CR / PD / PR: first tumor assessment; for CR / PD / PR / CR^& / PD^& / PR^& / SD^&: number of mice; for ORR (%)^& / CR^& / PD^& / PR^& / SD^&: second tumor assessment on day 40
Method: Six- to eight-week-old male BALB/c mice (National Laboratory Animal Center, Taiwan) were used in each treatment group for all animal experiments. […] CT26 cell line was purchased from ATCC. CT26 tumor cells were grown in McCoy's 5A supplemented with 10% (vol/vol) FBS at 37° C., 5% CO2. […] Tumors were allowed to grow for 8-11 days (tumor size about 150-250 mm^3) before randomization and treatment. Animals were euthanized when tumors reached more than 3000 mm^3 […]. CT26-bearing mice were given 2.5 mg/kg of anti-IgG (cat. #BE0089, Lot #716719J3, Bio X Cell) and anti-PD-1 (cat. #BE0146, Lot #735019J3, Bio X Cell) antibody by i.p. administration on days 8, 11, 14, 17, 20 and 23 post tumor implantation, and all antibodies were diluted to appropriate concentrations in 100 μL of sterile PBS (pH 7.4) (Invitrogen Life Technologies). […] The anti-cancer activity was measured from the start of the treatment until the tumor volume reached 3,000 mm^3. Tumor volume was calculated as length×width^2×0.5.
The BALB/c mice bearing murine CT26 colon tumors were treated with various therapeutic modalities as indicated. […] CT26 tumor-bearing mice were euthanized when tumor volume reached 3000 mm^3 after tumor implantation. […] After 16 days of treatment, we continued to monitor the tumor size up to day 60. When tumor growth reappeared and tumor size reached at least 5 fold in mice with CR or PR response after first tumor assessment, it was defined as relapse/recurrence. […] Furthermore, we also investigate epigenetic immunomodulatory properties in series of GNTbm compounds including GNTbm-05/k-30, GNTbm-11/k-30, GNTbm-38/k-30 and GNTbm-39/k-30.

[2] = tested on: CT26 tumor; assay: Survival rate in CT26 tumor-bearing mice; format: in vivo; settings: Exp 1
Method: The administration of antibody or drugs was performed for 16 days from day 8 to day 23. The tumor continued to grow in the tumor-bearing mice. The tumor volume of the mice was measured once every three or four days (twice/week). The tumor-bearing mice were regarded as dead when the tumor volume reached 3,000 mm^3. All treatment groups were recorded and analyzed.

[3] = tested on: CT26 cells; assay: Tumor rechallenge study (immune memory) in tumor-bearing mice; format: in vivo; settings: Exp 1; mice resistant to CT26 re-challenge
Method: All mice with PR/CR response after treatment went rechallenged with CT26 cells on the contralateral side (please see Table 6). The rechallenge with CT26 was performed on day 33, which was 7 days (day 33) after first tumor assessment (day 26), with injection of 5×10^6 CT26 cells to the right flank of each mouse. After rechallenge with CT26 cells, the tumor was allowed to grow for another 7 days (day 40) to determine the baseline as 1 fold. After a further 10 days (day 50), the tumor growth was evaluated for the rechallenge. If both of the following criteria are met, the response will be considered as relapse: first, the tumor size over 2 folds when compared to that of baseline; second, the tumor volume at day 50 was over 300 mm^3. Relapse happens when immune memory activity is not sufficiently activated. If the tumor growth is inhibited, it means the immune memory is activated.
The mice were treated with different regimens for 16 days, and then the first tumor assessment was performed (day 26). […] Then rechallenge was performed with the same kind of cancer cells (CT26; 5×10^6) inoculated on the opposite flank for about another 7 days (day 40), and then the tumor volume would be determined as baseline (1 fold). The rechallenge tumor was allowed to grow for 10 days (day 50), and then the tumor size was measured to evaluate the immune memory as positive or negative. […]

[4] = tested on: SK-BR-3; assay: In vitro cytotoxicity MTT assay; format: cell-based; settings: Homo sapiens, 72 h, IC50 ± SD
Method: (§1) Six different cell lines were used, including human breast cancer cell line MDA-MB-231 (6×10^3), MDA-MB-453 (2.4×10^4), SK-BR-3 (6×10^3), human breast epithelial cell line M10 (6×10^3), human gastric carcinoma NCI-N87 (2.4×10^4), and human colorectal adenocarcinoma SW48 (2.4×10^4), and seeded in a 96 well plate. Cell lines were obtained from Bioresource Collection and Research Center, BCRC, Taiwan. […] After 72 h, MTT assay (Cayman™) was used to determine the cellular viability.

[5] = tested on: SW48 cells; assay: Cell apoptosis (sub-G1) by PI flow cytometry; format: cell-based, human; settings: SW48, 6.25 μM, 72 h
Method: (§2) A PI/RNase staining assay (BD Bioscience™) was performed to reveal the presence of cell cycle arrest and apoptotic cells after treatment with GNTbm compounds, Chidamide and Entinostat. […] After treatment cells were harvested, fixed with 80% ethanol for 24 h, washed with 1×PBS and stained with PI/RNase for 15 min at room temperature. The cells were then analyzed using Flow Cytometer within 1 h.

[6] = tested on: M10 cells; assay: Cell apoptosis (sub-G1) by PI flow cytometry; format: cell-based, human; settings: M10, 12.5 μM, 72 h
Method: as §2

[7] = tested on: MDA-MB-231 cells; assay: Cell apoptosis (sub-G1) by PI flow cytometry; format: cell-based, human; settings: MDA-MB-231, 6.25 μM, 72 h
Method: as §2

[8] = tested on: histone H3 acetylation (AcH3) in MDA-MB-231 cells; assay: Western blot of histone H3 acetylation; format: cell-based, human; settings: MDA-MB-231, 1.0 μM, 24 h
Method: Human breast cancer MDA-MB-231 cells and human colorectal adenocarcinoma SW48 cells were analyzed. MDA-MB-231 and SW48 were obtained from Bioresource Collection and Research Center (BCRC, Taiwan). MDA-MB-231 and SW48 were grown at 37° C. under humidified air supplemented without CO2 in Leibovitz's L-15 (cat. #11415114, Thermo Fisher Scientific) containing 10% heat inactivated fetal calf serum (Thermo Scientific), 1× concentration of MycoZap antibiotics (cat. #VZA-2011, Lonza). Cells were treated with GNTbm compounds series, Chidamide or Entinostat for different time periods or at varied doses. Cells were treated with indicated doses for 24 h or cells were treated with indicated doses for different time periods. Cell pellets were dissolved with RIPA buffer (cat. #20-188, Merck) with protease and phosphatase inhibitors (cat. #K272, BioVision) and clarified by centrifugation. Equal amounts of total protein were resolved by SDS-PAGE and transferred to polyvinylidene fluoride membranes (cat. #1620177, BIO-RAD). Blots were incubated with primary antibodies against β-actin (cat. #sc-47778, Santa Cruz Biotechnology), Histone 3ac (cat. #61637, Active Motif), and HRP secondary antibodies anti-rabbit (ab6721, Abcam) and anti-mouse (sc-2005, Santa Cruz). Blots were developed using the ECL Western Blotting Substrate (cat. #sc-2048, Santa Cruz Biotechnology) Image blots were analyzed with the iBright FL1000 (Thermo Fisher Scientific) imaging systems.

[9] = tested on: MDA-MB-231; assay: In vitro cytotoxicity MTT assay; format: cell-based, human; settings: Homo sapiens, MDA-MB-231, 72 h, IC50 ± SD
Method: as §1

[10] = tested on: SW48; assay: In vitro cytotoxicity MTT assay; format: cell-based, human; settings: Homo sapiens, SW48, 72 h, IC50 ± SD
Method: as §1

[11] = tested on: MDA-MB-453; assay: In vitro cytotoxicity MTT assay; format: cell-based, human; settings: Homo sapiens, MDA-MB-453, 72 h, IC50 ± SD
Method: as §1

[12] = tested on: M10; assay: In vitro cytotoxicity MTT assay; format: cell-based, human; settings: Homo sapiens, M10, 72 h, IC50 ± SD
Method: as §1

[13] = molecular target: HDAC11 (Homo sapiens (Human), UniProt Q96DB2); assay: HDACs 1-11 enzymatic inhibition by BPS Bioscience
Method: HDAC assay was performed according to standard Protocols (Fluorgenic HDACs 1-11 assay kit, BPS Bioscience™). […] After 0.5 h, assay developer was added to the samples and the absorbance was read at fluorogenic wavelength. The relative inhibition to HDACs 1, 2, 3, 4, 5, 6, 7, 8, 9, and 11 activities was determined in each sample. […] All of the compounds were dissolved in DMSO. The serial dilution of the compounds was first performed in 100% DMSO with the highest concentration at 1 mM. Each intermediate compound dilution (in 100% DMSO) would then get directly diluted 10× fold into assay buffer for an intermediate dilution of 10% DMSO in HDAC assay buffer and 5 μl of the dilution was added to a 50 μl reaction so that the final concentration of DMSO is 1% in all of the reactions. The enzymatic reactions for the HDAC enzymes were conducted in duplicate at 37° C. for 30 minutes in a 50 μl mixture containing HDAC assay buffer, 5 μg BSA, an HDAC substrate, a HDAC enzyme and a test compound. After enzymatic reactions, 50 μl of 2×HDAC Developer was added to each well for the HDAC enzymes and the plate was incubated at room temperature for an additional 15 minutes. Fluorescence intensity was measured at an excitation of 360 nm and an emission of 460 nm using a Tecan Infinite M1000 microplate reader. HDAC activity assays were performed in duplicate at each concentration. The fluorescent intensity data were analyzed using the computer software, Graphpad Prism. In the absence of the compound, the fluorescent intensity (Ft) in each data set was defined as 100% activity. In the absence of HDAC, the fluorescent intensity (Fb) in each data set was defined as 0% activity. The percent activity in the presence of each compound was calculated according to the following equation: % activity=(F−Fb)/(Ft−Fb), where F=the fluorescent intensity in the presence of the compound. The values of % activity versus a series of compound concentrations were then plotted using non-linear regression analysis of Sigmoidal dose-response curve generated with the equation Y=B+(T−B)/1+10((Log EC50−X)×Hill Slope), where Y=percent activity, B=minimum percent activity, T=maximum percent activity, X=logarithm of compound and Hill Slope=slope factor or Hill coefficient. The IC50 value was determined by the concentration causing a half-maximal percent activity.

[14] = tested on: SW48 cells; assay: Cell cycle arrest by PI flow cytometry; format: cell-based, human; settings: SW48, 3.125 μM, 72 h
Method: as §2

[15] = tested on: M10 cells; assay: Cell cycle arrest by PI flow cytometry; format: cell-based, human; settings: M10, 12.5 μM, 72 h
Method: as §2

[16] = tested on: MDA-MB-231 cells; assay: Cell cycle arrest by PI flow cytometry; format: cell-based, human; settings: MDA-MB-231, 3.125 μM, 72 h
Method: as §2

HDAC11, sequence (Q96DB2 whole entry): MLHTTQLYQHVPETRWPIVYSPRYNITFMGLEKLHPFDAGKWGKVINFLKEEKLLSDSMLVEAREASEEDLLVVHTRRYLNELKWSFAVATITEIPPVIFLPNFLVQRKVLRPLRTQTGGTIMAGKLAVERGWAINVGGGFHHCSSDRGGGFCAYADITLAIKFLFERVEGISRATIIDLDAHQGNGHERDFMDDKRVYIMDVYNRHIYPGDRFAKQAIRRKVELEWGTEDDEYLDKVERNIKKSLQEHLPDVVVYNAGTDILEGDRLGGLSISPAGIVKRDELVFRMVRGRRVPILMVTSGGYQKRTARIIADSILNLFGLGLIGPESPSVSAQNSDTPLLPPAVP

Compound: CNC(=O)c1cc(Oc2ccc(NC(=O)Nc3ccc(Cl)c(C(F)(F)F)c3)c(F)c2)ccn1 [Regorafenib]
- ORR (%) ([1]; Exp 1, initial tumor volume 245 mm3, strict criteria (PR ≤1 times)): 11%
- CR ([1]; Exp 1): 1
- PD ([1]; Exp 1): 1
- PR ([1]; Exp 1): 0
- ORR (%)^& ([1]; Exp 1): 22%
- CR^& ([1]; Exp 1): 2
- PD^& ([1]; Exp 1): 5
- PR^& ([1]; Exp 1): 0
- SD^& ([1]; Exp 1): 2
- Relapse (recurrence) ([1]; Exp 1, tumor growth at least 5 fold in mice with CR or PR after first assessment, monitored up to day 60): 0% (0/1)
- ORR (%) ([1]; Exp 2, initial tumor volume 192 mm3): 0%
- CR ([1]; Exp 2): 0
- PD ([1]; Exp 2): 8
- PR ([1]; Exp 2): 0
- ORR (%)^& ([1]; Exp 2): 0%
- CR^& ([1]; Exp 2): 0
- PD^& ([1]; Exp 2): 9
- PR^& ([1]; Exp 2): 0
- SD^& ([1]; Exp 2): 0
- Survival rate (%) [2]: 11%
- Immunity (rechallenge) [3]: 100% (1/1)

Compound: Nc1ccccc1NC(=O)c1ccc(CNC(=O)OCc2cccnc2)cc1 [Entinostat, reference compound]
- IC50 [4]: 1.94 ± 0.1 µM
- Induction of apoptosis (sub-G1 phase) [5]: significantly induced apoptosis
- Induction of apoptosis (sub-G1 phase) [6]: significantly induced apoptosis in M10 cells
- Induction of apoptosis (sub-G1 phase) [7]: significantly induced apoptosis
- Level of histone H3 acetylation [8]: significantly increased the level of histone H3 acetylation
- IC50 [9]: 13.2 ± 1.34 µM
- IC50 [10]: 5.21 ± 0.37 µM
- IC50 [11]: 1.82 ± 0.024 µM
- IC50 [12]: 4.34 ± 0.01 µM
- IC50 [13]: > 10 µM
- Cell cycle arrest [14]: significantly induced cell cycle arrest in G0/G1 phase
- Cells in G0/G1 phase [14]: 72.1%
- Cell cycle arrest [15]: significantly induced cell cycle arrest of M10 cells in the G2/M phase
- Cells in G2/M phase [15]: 20.2%
- Cell cycle arrest [16]: significantly induced cell cycle arrest in G0/G1 phase
